This passage reports IC50 results from patent US7951804B2, “Piperidinyl compounds” (Merck Patent GmbH, priority 2003, dated 2011).

Where a name gives a salt, the structure may show the parent alone.

In test [1] the target is TF/FVIIa (Homo sapiens, UniProt P08709). The experiment in a line: TF/factor VIIa inhibition (TF/FVIIa-IC50). The format is biochemical. The source says: The inhibition of factor VIIa by the compounds according to the invention and the measurement of the anticoagulant and antithrombotic activity can be determined by conventional in-vitro or in-vivo methods. A conventional method for the measurement of the inhibition of factor Vila is described, for example, by H. F. Ronning et al. in Thrombosis Research 1996, 84, 73-81.
Sequence of TF/FVIIa (P08709 213-466 limits assumed): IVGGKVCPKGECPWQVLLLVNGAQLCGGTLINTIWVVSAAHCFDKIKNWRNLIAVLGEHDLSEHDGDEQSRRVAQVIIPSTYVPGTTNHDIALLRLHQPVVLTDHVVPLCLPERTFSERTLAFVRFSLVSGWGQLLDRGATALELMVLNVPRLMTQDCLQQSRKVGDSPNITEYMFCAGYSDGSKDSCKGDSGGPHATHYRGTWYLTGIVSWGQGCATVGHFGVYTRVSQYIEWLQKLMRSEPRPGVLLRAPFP
Sequence of TF/FVIIa (P08709 61-212 partner limits assumed): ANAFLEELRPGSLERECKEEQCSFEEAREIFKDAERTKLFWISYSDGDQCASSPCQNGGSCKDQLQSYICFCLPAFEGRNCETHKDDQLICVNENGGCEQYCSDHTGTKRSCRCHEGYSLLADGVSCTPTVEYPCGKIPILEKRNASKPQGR
Sequence of TF/FVIIa (P13726 33-295 partner): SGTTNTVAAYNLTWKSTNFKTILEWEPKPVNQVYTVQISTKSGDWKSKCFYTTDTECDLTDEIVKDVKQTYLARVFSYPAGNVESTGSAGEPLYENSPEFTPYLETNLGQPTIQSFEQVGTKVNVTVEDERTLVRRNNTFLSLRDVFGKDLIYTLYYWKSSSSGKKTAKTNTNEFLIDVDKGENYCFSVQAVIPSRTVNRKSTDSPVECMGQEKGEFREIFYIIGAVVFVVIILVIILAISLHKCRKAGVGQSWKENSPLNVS

For test [2], the target named is FXa (Homo sapiens, UniProt P00742). The experiment in a line: Factor Xa inhibition (FXa-IC50). In kind it is biochemical. The source says:
The inhibition of factor Xa by the compounds according to the invention and the measurement of the anticoagulant and antithrombotic activity can be determined by conventional in-vitro or in-vivo methods. A suitable method is described, for example, by J. Hauptmann et al. in Thrombosis and Haemostasis 1990, 63, 220-223.
The inhibition of factor Xa can be measured, for example, by the method of T. Hara et al. in Thromb. Haemostas. 1994, 71, 314-319.

Usually IC50 stands for the concentration needed to halve the response being measured. A lower IC50 goes with greater potency.

Sequence of FXa (P00742 235-488 limits assumed): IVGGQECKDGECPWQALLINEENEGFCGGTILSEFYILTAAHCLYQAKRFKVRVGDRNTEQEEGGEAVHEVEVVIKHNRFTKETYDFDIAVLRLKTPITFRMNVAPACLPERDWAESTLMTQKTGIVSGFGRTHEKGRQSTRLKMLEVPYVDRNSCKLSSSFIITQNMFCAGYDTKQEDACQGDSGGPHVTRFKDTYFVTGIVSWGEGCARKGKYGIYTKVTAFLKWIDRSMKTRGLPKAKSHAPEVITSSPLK
Sequence of FXa (P00742 41-179 partner limits assumed): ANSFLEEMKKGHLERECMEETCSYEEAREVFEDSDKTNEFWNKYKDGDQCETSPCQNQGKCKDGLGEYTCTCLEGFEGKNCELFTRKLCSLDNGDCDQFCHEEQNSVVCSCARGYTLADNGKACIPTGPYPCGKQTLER

Take `CN1CCC(C2CCN(C(=O)[C@H](NC(=O)Nc3ccc(Cl)cc3)c3ccccc3)CC2)CC1` [Compound 1, (R)-1-(4-chlorophenyl)-3-[2-(1′-methyl-4,4′-bipiperidinyl-1-yl)-2-oxo-1-phenylethyl]urea]: the IC50 amounted to 6.9 nM in test [1] and 6 nM in test [2].
In the same order, the values of `O=C(Nc1ccc(Cl)cc1)N[C@@H](C(=O)N1CCN(c2ccc(F)cc2)CC1)c1ccccc1` [Compound 2, (R)-1-(4-chlorophenyl)-3-{2-[4-(4-fluorophenyl)piperazin-1-yl]-2-oxo-1-phenylethyl}urea] are 1700 nM and 670 nM.
In the same order, the values of `CN1CCC(N2CCN(C(=O)[C@H](NC(=O)Nc3ccc(Cl)cc3)c3ccccc3)CC2)CC1` [Compound 5, (R)-1-(4-chlorophenyl)-3-{2-[4-(1-methylpiperidin-4-yl)piperazin-1-yl]-2-oxo-1-phenylethyl}urea bistrifluoroacetate] are 6.3 nM and 17 nM.
Regarding `CN1CCC(C2CCN(C(=O)[C@H](OC(=O)Nc3ccc(Cl)cc3)c3ccccc3)CC2)CC1` [Compound 49, 2-(1′-methyl-4,4′-bipiperidinyl-1-yl)-2-oxo-1-phenylethyl (R)-4-chlorophenyl)carbamate trifluoroacetate], the IC50 in test [1] is 15 nM; in test [2], 11 nM.
